The OPERA property sets (Mansouri et al. 2018)
≈ marks a conversion by molar mass, not a printed value.

Conditions: not given

Structure (SMILES) | logP
CC(C)(C)C(=O)OCOc1ccccc1C(N)=O | 2
O=C(NCN1CCOCC1)c1ccccc1O | 1.27
CC(C)(C)C(=O)OCOc1ccccc1C(=O)NCN1CCOCC1 | 1.81
CC(=O)OCOc1ccccc1C(=O)NCN1CCOCC1 | 0.27

Now from value to molecule:

logP | Structure (SMILES)
0.73 | CCOC(=O)CC(CO)C(CC)c1cncn1C (stereo not given)
0.52 | CC(=O)OCOc1ccccc1C(N)=O
1.66 | CCCC(=O)OCOc1ccccc1C(N)=O
4.6 | CCC(C(=O)OCCc1ccccc1)C(COC(=O)c1ccccc1)Cc1cncn1C (stereo not given)
1.34 | CCCC(=O)OCOc1ccccc1C(=O)NCN1CCOCC1

Same assay, conditions: 23 °C

solubility | Structure (SMILES)
2430 µM (≈ 610 µg/mL) | CC(C)(C)C(=O)OCOc1ccccc1C(N)=O
